ChEMBL document CHEMBL5126571, “Development of pyrazolo[3,4-d]pyrimidin-4-one scaffold as novel CDK2 inhibitors: Design, synthesis, and biological evaluation” (Bioorg Med Chem Lett, 2022)

How the values were obtained:
MCF7 [1] = experiment: Antiproliferative activity against human MCF7 cells by CCK-8 assay; assay type: functional, cell-based
[2] = molecular target: Cyclin-dependent kinase 2 (Homo sapiens, UniProt P24941); experiment: Binding affinity to CDK2 (unknown origin)
MCF7 [3] = experiment: Antiproliferative activity against human MCF7 cells at 4 uM by CCK-8 assay; assay type: functional

Row | Ki [2] | SMILES | IC50 (MCF7 [1]) | inhibition at 4 µM (MCF7 [3])
1 | – | COc1cc([C@@H]2c3cc4c(cc3[C@@H](O[C@@H]3O[C@@H]5CO[C@@H](C)O[C@H]5[C@H](O)[C@H]3O)[C@H]3COC(=O)[C@H]23)OCO4)cc(OC)c1O [ETOPOSIDE] | 18.8 µM | –
2 | 2.57 µM | CC(C)(C)/C=C(\C#N)C(=O)Nc1cccc(-c2nn(C(C)(C)C)c3nc[nH]c(=O)c23)c1 | – | –
3 | 2.2 µM | CC(C)(C)n1nc(-c2cccc(NC(=O)/C(C#N)=C/c3ccccc3)c2)c2c(=O)[nH]cnc21 | 21.7 µM | 30%
4 | 3.63 µM | CC(C)(C)n1nc(-c2cccc(NC(=O)/C(C#N)=C/c3ccc(Br)cc3)c2)c2c(=O)[nH]cnc21 | – | –
5 | 3.1 µM | CC(C)(C)n1nc(-c2cccc(NC(=O)/C(C#N)=C/c3cccc(Cl)c3)c2)c2c(=O)[nH]cnc21 | – | –
6 | 2.46 µM | CC(C)(C)n1nc(-c2cccc(NC(=O)/C(C#N)=C/c3cccc([N+](=O)[O-])c3)c2)c2c(=O)[nH]cnc21 | – | –
7 | 5.59 µM | CC(C)(C)n1nc(-c2cccc(NC(=O)/C(C#N)=C/c3cccc(C(F)(F)F)c3)c2)c2c(=O)[nH]cnc21 | – | –
8 | 11.6 µM | CCCC/C=C(\C#N)C(=O)Nc1cccc(-c2nn(C(C)(C)C)c3nc[nH]c(=O)c23)c1 | – | –
9 | 6.25 µM | CC(C)(C)n1nc(-c2cccc(NC(=O)/C(C#N)=C/C=C/c3ccccc3)c2)c2c(=O)[nH]cnc21 | – | –
10 | 1.31 µM | CC(C)(C)n1nc(-c2cccc(NC(=O)/C(C#N)=C/c3ccccc3Br)c2)c2c(=O)[nH]cnc21 | – | –
11 | 0.35 µM | CC(C)(C)n1nc(-c2cccc(NC(=O)/C(C#N)=C/c3ccccc3O)c2)c2c(=O)[nH]cnc21 | – | –
12 | 9.7 µM | COc1ccc(/C=C(\C#N)C(=O)Nc2cccc(-c3nn(C(C)(C)C)c4nc[nH]c(=O)c34)c2)cc1 | – | –
13 | 1.4 µM | CC(C)(C)n1nc(-c2cccc(NC(=O)/C(C#N)=C/c3ccc(C(=O)O)cc3)c2)c2c(=O)[nH]cnc21 | – | –
14 | 4.84 µM | Cc1cc(NS(=O)(=O)c2ccc(Nc3n[nH]c4nc[nH]c(=O)c34)cc2)no1 | – | –
15 | 0.52 µM | CC(C)(C)n1nc(-c2cccc(NC(=O)/C(C#N)=C/c3ccc(O)cc3)c2)c2c(=O)[nH]cnc21 | – | –
16 | 12.3 µM | CC(C)(C)n1nc(-c2cccc(NC(=O)/C(C#N)=C/c3ccccc3[N+](=O)[O-])c2)c2c(=O)[nH]cnc21 | – | –
17 | 1.64 µM | CC(C)(C)n1nc(-c2cccc(NC(=O)/C(C#N)=C/c3cc([N+](=O)[O-])cc([N+](=O)[O-])c3)c2)c2c(=O)[nH]cnc21 | – | –
18 | 1.95 µM | CC(C)(C)n1nc(-c2cccc(NC(=O)/C(C#N)=C/c3ccc([N+](=O)[O-])cc3)c2)c2c(=O)[nH]cnc21 | – | –
19 | 2.87 µM | CC(C)(C)n1nc(-c2cccc(NC(=O)/C(C#N)=C/c3ccc(F)cc3)c2)c2c(=O)[nH]cnc21 | – | –
20 | 14.7 µM | CC(C)(C)n1nc(-c2cccc(NC(=O)/C(C#N)=C/c3cccc(Br)c3)c2)c2c(=O)[nH]cnc21 | – | –
